Earlier results as cited in patent US6444469B1, “Methods for altering the rate of plant development and plants obtained therefrom” (Yale University, priority 1996, dated 2002).

Test system: late-flowering strains and mutants of Arabidopsis
Settings: treatment of seeds; some late-flowering strains and mutants

## Nc1ncn([C@@H]2O[C@H](CO)[C@@H](O)[C@H]2O)c(=O)n1 [Line 5-AzaC, 5-azacytidine]
  Effect on flowering: early flowering
